Patent publication US20260334439A1, “BCAT2 INHIBITORS” (Agios Pharmaceuticals, Inc., priority 2023, published 2026)

Molecular target: T1, BCAT2 (Homo sapiens, UniProt O15382)
T1 sequence (O15382 28-392): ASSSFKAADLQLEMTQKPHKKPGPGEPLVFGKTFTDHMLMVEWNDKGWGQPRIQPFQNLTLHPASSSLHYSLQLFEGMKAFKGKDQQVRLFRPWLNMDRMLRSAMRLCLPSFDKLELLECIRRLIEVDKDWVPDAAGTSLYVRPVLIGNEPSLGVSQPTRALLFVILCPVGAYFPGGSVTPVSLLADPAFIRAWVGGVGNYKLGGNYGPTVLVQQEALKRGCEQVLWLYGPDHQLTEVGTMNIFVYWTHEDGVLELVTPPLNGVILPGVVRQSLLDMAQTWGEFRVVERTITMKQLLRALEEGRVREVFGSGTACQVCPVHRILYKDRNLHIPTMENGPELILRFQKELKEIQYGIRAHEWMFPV
Assay: BCAT2 in vitro enzyme inhibition assay (hBCAT2, glutamate dehydrogenase/diaphorase/resazurin coupled fluorescence read)
Format: biochemical
Settings: hBCAT2, 1 h preincubation at 25° C., one hour reaction; average where tested multiple times
Method: • 2×Buffer: 200 mM Tris pH 8.0, 300 mM NaCl, 0.1% BSA • 1.67×hBCAT2 Enzyme Mix: 0.33 μg/mL hBCAT2, 1× Buffer • 2.5×Substrate Mix: 460 µM L-leucine, 420 µM α-KetoGlutarate, 10 U/mL glutamate dehydrogenase, 10 mM NAD, […] diaphorase, […] Resazurin
BCAT2 enzyme stock solution was diluted to prepare a 1.67×hBCAT2 Enzyme Mix. 1 μL of test compound was first added to the reaction wells followed by 30 μL of 1.67×hBCAT2 Enzyme Mix and incubated at room temperature (25° C.) for one hour. Meanwhile the Substrate Mix was prepared. The reaction was initiated by the addition of 20 μL of the 2.5×Substrate Mix, bringing the final reaction mix of all components to 1×. Reactions were quenched after one hour by the addition of 25 μL of 6% SDS and reaction progress was measured via fluorescence read (Ex 540/Em 590).
Test compounds were prepared at 50×final concentration in DMSO, 1 to 3 dilutions were made for 10 points. The compounds were added to the assay as a 1 to 50 dilution (1 μL in 50 μL) to yield a top assay final concentration of 100 μM, decreasing 3-fold for 10 points. Each compound dilution series test also included an assay max (1 μL DMSO Added in lieu of compound, Full Reaction Components Included) and Min (1 μL DMSO Added in lieu of compound, 30 μl of 1.67×hBCAT2 Enzyme Mix replated by 30 μL of 1×Buffer). All tests were performed in technical duplicate.
Where a compound was tested multiple times, the average value of the tests is reported.

SMILES	IC50 [nM]
CN1C[C@H](NC(=O)c2cc(Cl)ccn2)C[C@H](n2c(-c3ccccc3OCCO)nc3cnc(-c4ncco4)cc32)C1 [Example 161, 4-chloro-N-((3R,5S)-5-(2-(2-(2-hydroxyethoxy)phenyl)-6-(oxazol-2-yl)-1H-imidazo[4,5-c]pyridin-1-yl)-1-methylpiperidin-3-yl)picolinamide]	< 100
CC(CCO)Cc1nc2cnc(-c3nc[nH]n3)cc2n1[C@@H]1CCC[C@H](NC(=O)c2cc(Cl)ccn2)C1 (stereo partly drawn) [Example 95, 4-chloro-N-((1S,3R)-3-(2-(4-hydroxy-2-methylbutyl)-6-(1H-1,2,4-triazol-3-yl)-1H-imidazo[4,5-c]pyridin-1-yl)cyclohexyl)picolinamide]	> 1000
CN1C[C@@H](NC(=O)c2cc(F)ccc2F)C[C@@H](n2c(-c3ccccc3F)nc3cnc(-c4nc[nH]n4)cc32)C1 [Example 152, 2,5-difluoro-N-((3S,5R)-5-(2-(2-fluorophenyl)-6-(1H-1,2,4-triazol-3-yl)-1H-imidazo[4,5-c]pyridin-1-yl)-1-methylpiperidin-3-yl)benzamide]	100 to 500
CC(Oc1ccccc1-c1nc2cnc(-c3nc[nH]n3)cc2n1[C@@H]1CCC[C@H](NC(=O)c2cc(Cl)ccn2)C1)C(F)(F)F (stereo partly drawn) [Example 92, N-((1S,3R)-3-(6-(1H-1,2,4-triazol-3-yl)-2-(2-((1,1,1-trifluoropropan-2-yl)oxy)phenyl)-1H-imidazo[4,5-c]pyridin-1-yl)cyclohexyl)-4-chloropicolinamide]	> 1000
CC(=O)N1C[C@@H](N2Cc3ccc(F)cc3C2=O)C[C@@H](n2c(-c3ccccc3F)nc3cnc(-n4nccn4)cc32)C1 [Example 199, 2-((3S,5R)-1-acetyl-5-(2-(2-fluorophenyl)-6-(2H-1,2,3-triazol-2-yl)-1H-imidazo[4,5-c]pyridin-1-yl)piperidin-3-yl)-6-fluoroisoindolin-1-one]	< 100
O=C(N[C@H]1CCC[C@@H](n2c(-c3ncccc3F)nc3ccc(-c4nc[nH]n4)cc32)[C@@H]1O)c1cc(F)ccc1F [Example 222, 2,5-difluoro-N-((1S,2R,3R)-3-(2-(3-fluoropyridin-2-yl)-6-(1H-1,2,4-triazol-3-yl)-1H-benzo[d]imidazol-1-yl)-2-hydroxycyclo-hexyl)benzamide]	100 to 500
CC(C)COc1ccc(Cl)cc1C(=O)N[C@H]1CCC[C@@H](n2c(-c3ncccc3F)nc3cnc(-c4nc[nH]n4)cc32)C1 [Example 48, 5-chloro-N-((1S,3R)-3-(2-(3-fluoropyridin-2-yl)-6-(1H-1,2,4-triazol-3-yl)-1H-imidazo[4,5-c]pyridin-1-yl)cyclohexyl)-2-isobutoxybenzamide]	< 100
NC1CC(N2Cc3ccc(F)cc3C2=O)CC(n2c(-c3ccccc3F)nc3cnc(-c4nc[nH]n4)cc32)C1 (stereo not drawn) [Example 196, 2-(3-amino-5-(2-(2-fluorophenyl)-6-(1H-1,2,4-triazol-3-yl)-1H-imidazo[4,5-c]pyridin-1-yl)cyclohexyl)-6-fluoroisoindolin-1-one]	< 100
CO[C@@H]1C[C@@H](NC(=O)c2cc(F)ccn2)C[C@@H](n2c(-c3ccccc3F)nc3ccc(-c4nc[nH]n4)cc32)C1 [Example 220, 4-fluoro-N-((1R,3S,5S)-3-(2-(2-fluorophenyl)-6-(1H-1,2,4-triazol-3-yl)-1H-benzo[d]imid-azol-1-yl)-5-methoxycyclohex-yl)picolinamide]	> 1000
O=C(NC1CCCCC(n2c(-c3ccccc3F)nc3cnc(-c4nc(C(F)(F)F)co4)cc32)C1O)c1cc(F)ccc1F (stereo not drawn) [Example 126, 2,5-difluoro-N-(3-(2-(2-fluorophenyl)-6-(4-(trifluoromethyl)oxazol-2-yl)-1H-imidazo[4,5-c]pyridin-1-yl)-2-hydroxycycloheptyl)benzamide]	< 100
N#Cc1ccccc1-c1nc2cnc(-c3nc(C(F)(F)F)co3)cc2n1[C@@H]1CCC[C@H](NC(=O)c2cc(F)ccc2F)C1 [Example 101, N-((1S,3R)-3-(2-(2-cyanophenyl)-6-(4-(trifluoromethyl)oxazol-2-yl)-1H-imidazo[4,5-c]pyridin-1-yl)cyclohexyl)-2,5-difluorobenzamide]	< 100
O=C(N[C@H]1CCC[C@@H](n2c(-c3ccccc3OC(F)F)nc3cnc(-c4nc[nH]n4)cc32)C1)c1cc(Cl)ccc1OC(F)F [compound 51]	< 100
COc1ccnc(C(=O)N[C@H]2CCC[C@@H](n3c(-c4ncccc4OC(F)F)nc4cnc(-c5nc[nH]n5)cc43)C2)c1 [compound 64]	< 100
CC(C)OCc1nc2cnc(-c3nc[nH]n3)cc2n1[C@@H]1CCC[C@H](NC(=O)c2cc(Cl)ccn2)C1 [Example 20, 4-chloro-N-((1S,3R)-3-(2-(isopropoxymethyl)-6-(1H-1,2,4-triazol-3-yl)-1H-imidazo[4,5-c]pyridin-1-yl)cyclohexyl)picolinamide]	> 1000
CN1C[C@@H](NC(=O)c2cc(Cl)ccn2)C[C@@H](n2c(-c3ccccc3OC(F)F)nc3cnc(-c4nc[nH]n4)cc32)C1 [compound 142]	100 to 500
CCNCc1nc2cnc(-c3nc[nH]n3)cc2n1[C@@H]1CCC[C@H](NC(=O)c2cc(Cl)ccn2)C1 [Example 38, 4-chloro-N-((1S,3R)-3-(2-((ethylamino)methyl)-6-(1H-1,2,4-triazol-3-yl)-1H-imidazo[4,5-c]pyridin-1-yl)cyclohexyl)picolinamide]	> 1000
NC(=O)c1ccccc1-c1nc2cnc(-c3nc[nH]n3)cc2n1[C@@H]1CCC[C@H](N2COc3ccc(Cl)cc3C2=O)C1 [Example 207, 2-(1-((1R,3S)-3-(6-chloro-4-oxo-2H-benzo[e][1,3]oxazin-3(4H)-yl)cyclohexyl)-6-(1H-1,2,4-triazol-3-yl)-1H-imidazo[4,5-c]pyridin-2-yl)benzamide]	< 100
CN1C[C@@H](NC(=O)c2cc(Cl)ccn2)C[C@@H](n2c(-c3ncccc3F)nc3cnc(-c4nc[nH]n4)cc32)C1 [Example 131, 4-chloro-N-((3S,5R)-5-(2-(3-fluoropyridin-2-yl)-6-(1H-1,2,4-triazol-3-yl)-1H-imidazo[4,5-c]pyridin-1-yl)-1-methylpiperidin-3-yl)picolinamide]	> 1000
O=C(N[C@H]1C[C@@H](n2c(-c3ccccc3OCCO)nc3ccc(-c4nc[nH]n4)cc32)CC(F)(F)C1)c1cc(F)ccn1 [Example 232, N-((1S,5R)-3,3-difluoro-5-(2-(2-(2-hydroxyethoxy)phenyl)-6-(1H-1,2,4-triazol-3-yl)-1H-benzo[d]imidazol-1-yl)cyclohexyl)-4-fluoropicolinamide]	100 to 500
N[C@H]1[C@H](n2c(-c3ccccc3F)nc3ccc(-c4nc[nH]n4)cc32)CCC[C@@H]1N1Cc2ccc(Cl)cc2C1=O [Example 242, 2-((1S,2S,3R)-2-amino-3-(2-(2-fluorophenyl)-6-(1H-1,2,4-triazol-3-yl)-1H-benzo[d]imidazol-1-yl)cyclohexyl)-6-chloroisoindolin-1-one]	< 100
CC(=O)N1C[C@@H](NC(=O)c2cc(F)ccn2)C[C@@H](n2c(-c3ccccc3F)nc3cnc(-c4nc(C)co4)cc32)C1 [Example 166, N-((3S,5R)-1-acetyl-5-(2-(2-fluorophenyl)-6-(4-methyloxazol-2-yl)-1H-imidazo[4,5-c]pyridin-1-yl)piperidin-3-yl)-4-fluoropicolinamide]	< 100
